Source: PubChem BioAssay AID2060892 (Molecular Pharmacology Branch, DTP, NCI, 2025)
pIC50: −log10 of the molar value.

System: HOP-62 complex spheroids with HUVEC/MSC, viability
Experiment: Anticancer human tumor HOP-62 cell line growth inhibition [RAS];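 also: spheroids exposed to agents for seven days before readout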;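 as to viability, T/C: 100% = DMSO vehicle control viability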
Details: for pIC50: curve of first compound; for viability, T/C: stronger effect = lower value; active = viability on the fitted dose curve at most 10% of control; inactive = the rest
Outline: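 Multi-cell-type spheroids: tumor cells plus HUVEC endothelial cells and mesenchymal stem cells. RAS-pathway inhibitors were combined with targeted agents, each dosed in half-log steps down from clinical Cmax, or from 10 microM when Cmax was unknown.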

[1] = second compound 0.000949 µM, first compound 0.0316 µM
[2] = second compound 0.000949 µM, first compound 0.1 µM
[3] = second compound 0.000949 µM, first compound 0.316 µM
[4] = second compound 0.000949 µM, first compound 1 µM
[5] = second compound 0.000949 µM, first compound 3.16 µM
[6] = second compound 0.000949 µM, first compound 10 µM
[7] = second compound 0.003 µM, first compound 0.0316 µM
[8] = second compound 0.003 µM, first compound 0.1 µM
[9] = second compound 0.003 µM, first compound 0.316 µM
[10] = second compound 0.003 µM, first compound 1 µM
[11] = second compound 0.003 µM, first compound 3.16 µM
[12] = second compound 0.003 µM, first compound 10 µM
[13] = second compound 0.00949 µM, first compound 0.0316 µM
[14] = second compound 0.00949 µM, first compound 0.1 µM
[15] = second compound 0.00949 µM, first compound 0.316 µM
[16] = second compound 0.00949 µM, first compound 1 µM
[17] = second compound 0.00949 µM, first compound 3.16 µM
[18] = second compound 0.00949 µM, first compound 10 µM
[19] = second compound 0.03 µM, first compound 0.0316 µM
[20] = second compound 0.03 µM, first compound 0.1 µM
[21] = second compound 0.03 µM, first compound 0.316 µM
[22] = second compound 0.03 µM, first compound 1 µM
[23] = second compound 0.03 µM, first compound 3.16 µM
[24] = second compound 0.03 µM, first compound 10 µM
[25] = second compound 0.0949 µM, first compound 0.0316 µM
[26] = second compound 0.0949 µM, first compound 0.1 µM
[27] = second compound 0.0949 µM, first compound 0.316 µM
[28] = second compound 0.0949 µM, first compound 1 µM
[29] = second compound 0.0949 µM, first compound 3.16 µM
[30] = second compound 0.0949 µM, first compound 10 µM
[31] = second compound 0.3 µM, first compound 0.0316 µM
[32] = second compound 0.3 µM, first compound 0.1 µM
[33] = second compound 0.3 µM, first compound 0.316 µM
[34] = second compound 0.3 µM, first compound 1 µM
[35] = second compound 0.3 µM, first compound 3.16 µM
[36] = second compound 0.3 µM, first compound 10 µM

CC1(O)CCCC1n1c(=O)c(C(F)F)cc2cnc(NC3CCN(S(C)(=O)=O)CC3)nc21 (stereo unspecified) + CCn1c(-c2cccnc2C(C)OC)c2c3cc(ccc31)N1CCOC(CC(NC(=O)C(C(C)C)N(C)C(=O)C3(F)CCN(C(=O)C#CC(C)(C)N(C)C)CC3)C(=O)N3CCCC(N3)C(=O)OCC(C)(C)C2)C1
5.35: pIC50 (second compound 0.003 µM)
5.79: pIC50 (second compound 0.0949 µM)
inactive: viability, T/C [1] 107% | viability, T/C [2] 87.9% | viability, T/C [3] 58% | viability, T/C [4] 86.6% | viability, T/C [5] 77.8% | viability, T/C [7] 94.1% | viability, T/C [8] 65.2% | viability, T/C [9] 54.5% | viability, T/C [10] 67.6% | viability, T/C [11] 70.9% | viability, T/C [13] 83% | viability, T/C [14] 59.1% | viability, T/C [15] 61% | viability, T/C [16] 60% | viability, T/C [17] 55.9% | viability, T/C [19] 89.5% | viability, T/C [20] 80.2% | viability, T/C [21] 57.5% | viability, T/C [22] 60.5% | viability, T/C [23] 33% | viability, T/C [25] 80.6% | viability, T/C [26] 67.1% | viability, T/C [27] 56.8% | viability, T/C [28] 59.7% | viability, T/C [29] 43.4% | viability, T/C [31] 71.7% | viability, T/C [32] 63.1% | viability, T/C [33] 56.5% | viability, T/C [34] 51.9% | viability, T/C [35] 21.2%
5.32: pIC50 (second compound 0.000949 µM)
active: viability, T/C [6] 2.45% | viability, T/C [12] 2.8% | viability, T/C [18] 2.82% | viability, T/C [24] 2.88% | viability, T/C [30] 2.21% | viability, T/C [36] 2.92%
5.47: pIC50 (second compound 0.00949 µM)
6.11: pIC50 (second compound 0.3 µM)
5.93: pIC50 (second compound 0.03 µM)

CCC(CC)c1cc(NC2CCC(N)C2)n2nccc2n1 (stereo unspecified) + CCn1c(-c2cccnc2C(C)OC)c2c3cc(ccc31)N1CCOC(CC(NC(=O)C(C(C)C)N(C)C(=O)C3(F)CCN(C(=O)C#CC(C)(C)N(C)C)CC3)C(=O)N3CCCC(N3)C(=O)OCC(C)(C)C2)C1
5.70: pIC50 (second compound 0.003 µM)
inactive: viability, T/C [1] 126% | viability, T/C [2] 107% | viability, T/C [3] 96.3% | viability, T/C [4] 110% | viability, T/C [7] 116% | viability, T/C [8] 101% | viability, T/C [9] 109% | viability, T/C [10] 118% | viability, T/C [13] 91.4% | viability, T/C [14] 96.5% | viability, T/C [15] 101% | viability, T/C [16] 121% | viability, T/C [19] 98.5% | viability, T/C [20] 99.6% | viability, T/C [21] 100% | viability, T/C [22] 113% | viability, T/C [25] 91.7% | viability, T/C [26] 98.4% | viability, T/C [27] 96.9% | viability, T/C [28] 104% | viability, T/C [31] 82.5% | viability, T/C [32] 86.8% | viability, T/C [33] 95% | viability, T/C [34] 95%
5.74: pIC50 (second compound 0.03 µM)
active: viability, T/C [5] 6.83% | viability, T/C [6] 1.38% | viability, T/C [11] 7.77% | viability, T/C [12] 0.66% | viability, T/C [17] 5.15% | viability, T/C [18] 0.65% | viability, T/C [23] 2.86% | viability, T/C [24] 0.81% | viability, T/C [29] 1.59% | viability, T/C [30] 0.78% | viability, T/C [35] 3.22% | viability, T/C [36] 1.08%
5.73: pIC50 (second compound 0.00949 µM)
5.75: pIC50 (second compound 0.0949 µM)
5.71: pIC50 (second compound 0.000949 µM)
5.77: pIC50 (second compound 0.3 µM)

CCN1CCN(Cc2ccc(Nc3ncc(F)c(-c4cc(F)c5nc(C)n(C(C)C)c5c4)n3)nc2)CC1 + CCn1c(-c2cccnc2C(C)OC)c2c3cc(ccc31)N1CCOC(CC(NC(=O)C(C(C)C)N(C)C(=O)C3(F)CCN(C(=O)C#CC(C)(C)N(C)C)CC3)C(=O)N3CCCC(N3)C(=O)OCC(C)(C)C2)C1
< 6.00: pIC50 (second compound 0.000949 µM) | pIC50 (second compound 0.003 µM) | pIC50 (second compound 0.00949 µM) | pIC50 (second compound 0.03 µM) | pIC50 (second compound 0.0949 µM) | pIC50 (second compound 0.3 µM)
inactive: viability, T/C (second compound 0.000949 µM, first compound 0.00316 µM) 106% | viability, T/C (second compound 0.000949 µM, first compound 0.01 µM) 116% | viability, T/C [1] 86.5% | viability, T/C [2] 108% | viability, T/C [3] 107% | viability, T/C [4] 92.3% | viability, T/C (second compound 0.003 µM, first compound 0.00316 µM) 102% | viability, T/C (second compound 0.003 µM, first compound 0.01 µM) 99.7% | viability, T/C [7] 68.9% | viability, T/C [8] 97% | viability, T/C [9] 97.5% | viability, T/C [10] 76.8% | viability, T/C (second compound 0.00949 µM, first compound 0.00316 µM) 100% | viability, T/C (second compound 0.00949 µM, first compound 0.01 µM) 81.7% | viability, T/C [13] 84.2% | viability, T/C [14] 87.9% | viability, T/C [15] 88.6% | viability, T/C [16] 79.2% | viability, T/C (second compound 0.03 µM, first compound 0.00316 µM) 96.6% | viability, T/C (second compound 0.03 µM, first compound 0.01 µM) 86.7% | viability, T/C [19] 82.8% | viability, T/C [20] 85.3% | viability, T/C [21] 78.6% | viability, T/C [22] 89.5% | viability, T/C (second compound 0.0949 µM, first compound 0.00316 µM) 87.8% | viability, T/C (second compound 0.0949 µM, first compound 0.01 µM) 97.7% | viability, T/C [25] 79.7% | viability, T/C [26] 74.4% | viability, T/C [27] 68.3% | viability, T/C [28] 97.4% | viability, T/C (second compound 0.3 µM, first compound 0.00316 µM) 90.2% | viability, T/C (second compound 0.3 µM, first compound 0.01 µM) 78.9% | viability, T/C [31] 79.7% | viability, T/C [32] 70.2% | viability, T/C [33] 74.3% | viability, T/C [34] 91.4%
